Measured values taken from US20110275559A1, “Long-Acting Y2 and/or Y4 Receptor Agonists” (Novo Nordisk A/S, priority 2008, published 2011).
Where two headings read alike, the source gives them in different places. *1 amine or outer side, *2 acyl side, *3 side chain or, on linkers, in order; H or OH if unused. Where a SMILES comes first, the peptide text is derived from it. Side-chain parts run from the residue outwards. The star is where a group is joined. C20 diacid = O=C(O)CCCCCCCCCCCCCCCCCCC(=O)*; C18 diacid = O=C(O)CCCCCCCCCCCCCCCCC(=O)*; γGlu = O=C(O)[C@H](CCC(=O)[*:2])N[*:1]; Trx = NC[C@H]1CC[C@H](C(=O)O)CC1; AEEA = NCCOCCOCC(=O)O

Legend:
Y4 receptor = target: T1, Y4 receptor (Homo sapiens, UniProt P50391); experiment: Y4 receptor ACTOne based FLIPR assay (cAMP biosensor); type: cell-based
T1 construct: host or cells: ACTOne HEK-293 cells
T1 sequence (P50391 whole entry): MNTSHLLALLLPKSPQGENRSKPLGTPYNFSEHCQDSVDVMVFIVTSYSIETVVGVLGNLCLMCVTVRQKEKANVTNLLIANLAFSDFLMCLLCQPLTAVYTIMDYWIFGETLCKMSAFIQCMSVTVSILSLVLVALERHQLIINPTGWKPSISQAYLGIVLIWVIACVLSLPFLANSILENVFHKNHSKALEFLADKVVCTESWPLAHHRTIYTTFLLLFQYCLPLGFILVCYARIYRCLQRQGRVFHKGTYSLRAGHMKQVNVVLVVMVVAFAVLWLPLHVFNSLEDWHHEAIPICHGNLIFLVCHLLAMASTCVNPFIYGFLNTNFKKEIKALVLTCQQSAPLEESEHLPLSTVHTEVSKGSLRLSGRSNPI
Source text: ACTOne™ is an easily scaleable cAMP biosensor HTS platform for measurement of Gs and Gi coupled 7™ receptor signalling from BD Biosciences (San Jose, Calif.). The cells express a biosensor developed around a modified rat olfactory cyclic nucleotide gated (CNG) calcium channel—a fairly non-discriminatory ion channel that responds to cAMP and cGMP. The CNG has been engineered to be cAMP selective and thus function as a cAMP responsive biosensor that signals through calcium or membrane potential responsive dyes. Y2 or Y4 receptor expressing ACTOne HEK-293 cells are obtained from BD Biosciences. The cells are loaded with a calcium responsive dye that only distributes in the cytoplasm. Probenecid, an inhibitor of the organic anion transporter is added to prevent the dye from leaving the cell. A phosphodiesterase inhibitor is added to prevent formatted cAMP from being degraded. Isoproterenol (an β1/β2 agonist) is added to activate the adenylate cyclase. When an Y2 or Y4 receptor agonist is added, the adenylate cyclase is inactivated. The decreased calcium concentration in the cytoplasm is then detected as an increase in fluorescence. Together with the test substance, Isoproterenol at a concentration matching EC80, is added to all wells. • The cells are plated out in Greiner 384-well plates. […] The plates are covered with tinfoil to avoid light (the dye can be excited by the daylight, which results in higher baseline and variation). • The FLIPR (FLIPRtetra from Molecular Devices, CA, USA) adds 1 μl sample and 1 μl isoproterenol (0.05 μM final concentration) at the same time. • The fluorescence signal from the wells is measured 330 seconds after sample addition on the FLIPR.

[1] = Mini-pig PK assay (plasma half-life); details: Göttingen, minipig
Procedure, shortened: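 Catheterised mini-pigs received compound i.v. at 10 nmol/kg in pH 4.0 phosphate/NaCl/tween vehicle, or alternatively i.v. or s.c. at 1–30 nmol/kg in pH 8.0 K2HPO4/tween. Stabilised plasma was sampled up to 13 days and assayed by LC-MS (LLOQ 2 nM). Half-life came from non-compartmental analysis of individual animal profiles.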

Y2 receptor = target: T2, Y2 receptor (Homo sapiens, UniProt P49146); experiment: Y2 receptor ACTOne based FLIPR assay (cAMP biosensor); type: cell-based
T2 construct: host or cells: ACTOne HEK-293 cells
T2 sequence (P49146 1-381): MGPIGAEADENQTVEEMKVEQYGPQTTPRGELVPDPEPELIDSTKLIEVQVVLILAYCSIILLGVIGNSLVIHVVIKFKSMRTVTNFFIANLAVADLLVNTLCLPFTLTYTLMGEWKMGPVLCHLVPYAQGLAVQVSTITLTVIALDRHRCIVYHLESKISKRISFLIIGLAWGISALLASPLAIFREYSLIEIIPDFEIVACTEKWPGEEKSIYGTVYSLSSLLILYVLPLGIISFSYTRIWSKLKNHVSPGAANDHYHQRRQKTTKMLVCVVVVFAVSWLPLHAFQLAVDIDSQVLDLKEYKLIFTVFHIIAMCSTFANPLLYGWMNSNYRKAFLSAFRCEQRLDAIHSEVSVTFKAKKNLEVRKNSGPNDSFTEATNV

[2] = Table 2, PP analogues, ACTOne HEK-293 cells, read-out: Y4 cAMP EC50
[3] = Table 2, PP analogues, ACTOne HEK-293 cells, read-out: Y2 cAMP EC50

SMILES	EC50 (Y4 receptor) [nM]	half-life ([1]; in vivo, iv, 1 nmol/kg) [h]	half-life ([1]; in vivo, iv, 30 nmol/kg) [h]	EC50 (Y2 receptor) [nM]	half-life ([1]; iv, […]) [h]	EC50 (Y4 receptor; [2]) [nM]	EC50 (Y2 receptor; [3]) [nM]	half-life ([1]; male, sc, […]) [h]
CC[C@H](C)[C@H](NC(=O)[C@H](Cc1ccc(O)cc1)NC(=O)[C@H](CCCNC(=N)N)NC(=O)[C@H](CCCNC(=N)N)NC(=O)[C@H](CC(C)C)NC(=O)[C@H](CC(=O)O)NC(=O)[C@H](C)NC(=O)[C@H](C)NC(=O)[C@H](Cc1ccc(O)cc1)NC(=O)[C@H](CCC(N)=O)NC(=O)[C@H](C)NC(=O)[C@H](CC(C)C)NC(=O)[C@H](CCC(N)=O)NC(=O)[C@H](CCC(=O)O)NC(=O)[C@@H]1CCCN1C(=O)[C@H](CCCCNC(=O)COCCOCCNC(=O)COCCOCCNC(=O)CC[C@H](NC(=O)[C@H]1CC[C@H](CNC(=O)CCCCCCCCCCCCCCCCCCC(=O)O)CC1)C(=O)O)NC(=O)[C@H](C)NC(=O)[C@H](CC(N)=O)NC(=O)[C@H](CC(=O)O)NC(=O)CNC(=O)[C@@H]1CCCN1C(=O)[C@H](Cc1ccc(O)cc1)NC(=O)[C@@H](NC(=O)[C@@H]1CCCN1C(=O)[C@H](CCC(=O)O)NC(=O)[C@H](CC(C)C)NC(=O)[C@@H]1CCCN1C(=O)[C@H](C)N)C(C)C)C(=O)N[C@@H](CC(N)=O)C(=O)N[C@H](C(=O)N[C@@H](CC(C)C)C(=O)N[C@H](C(=O)N[C@@H](CCCNC(=N)N)C(=O)N[C@@H](CCC(N)=O)C(=O)N[C@@H](CCCNC(=N)N)C(=O)N[C@@H](Cc1ccc(O)cc1)C(N)=O)[C@@H](C)O)C(C)C [SEQ ID NO: 17, N-epsilon13-[2-(2-{2-[2-(2-{2-[(S)-4-Carboxy-4-({trans-4-[(19-carboxynonadecanoylamino)methyl]cyclohexanecarbonyl}amino)butyrylamino]-ethoxy}ethoxy)acetylamino]ethoxy}ethoxy)acetyl][Lys13,Leu17,Val30,Gln34]hPP(1-36)] (H-APLEPVYPGDNAK([AEEA-AEEA-γGlu-Trx-C20 diacid])PEQLAQYAADLRRYINVLTRQRY-NH2; N-terminus and C-terminus assumed)	7	–	–	–	–	–	–	–
CC[C@H](C)[C@H](NC(=O)[C@H](Cc1ccc(O)cc1)NC(=O)[C@H](CCCNC(=N)N)NC(=O)[C@H](CCCNC(=N)N)NC(=O)[C@H](CC(C)C)NC(=O)[C@H](CC(=O)O)NC(=O)[C@H](C)NC(=O)[C@H](C)NC(=O)[C@H](Cc1ccc(O)cc1)NC(=O)[C@H](CCC(N)=O)NC(=O)[C@H](C)NC(=O)[C@H](CC(C)C)NC(=O)[C@H](CCC(N)=O)NC(=O)[C@H](CCC(=O)O)NC(=O)[C@@H]1CCCN1C(=O)[C@@H](NC(=O)[C@H](C)NC(=O)[C@H](CCCCNC(=O)COCCOCCNC(=O)COCCOCCNC(=O)CC[C@H](NC(=O)[C@H]1CC[C@H](CNC(=O)CCCCCCCCCCCCCCCCCCC(=O)O)CC1)C(=O)O)NC(=O)[C@H](CC(=O)O)NC(=O)CNC(=O)[C@@H]1CCCN1C(=O)[C@H](Cc1ccc(O)cc1)NC(=O)[C@@H](NC(=O)[C@@H]1CCCN1C(=O)[C@H](CCC(=O)O)NC(=O)[C@H](CC(C)C)NC(=O)[C@@H]1CCCN1)C(C)C)[C@@H](C)O)C(=O)N[C@@H](CC(N)=O)C(=O)N[C@@H](CC(C)C)C(=O)N[C@@H](CC(C)C)C(=O)N[C@H](C(=O)N[C@@H](CCCNC(=N)N)C(=O)N1CCC[C@H]1C(=O)N[C@@H](CCCNC(=N)N)C(=O)N[C@@H](Cc1ccc(O)cc1)C(N)=O)[C@@H](C)O [SEQ ID NO: 29, N-epsilon11-[2-(2-{2-[2-(2-{2-[(S)-4-Carboxy-4-({trans-4-[(19-carboxynonadecanoylamino)methyl]cyclohexanecarbonyl}amino)butyrylamino]-ethoxy}ethoxy)acetylamino]ethoxy}ethoxy)acetyl][Lys11,Leu17,Leu30]hPP2-36] (H-PLEPVYPGDK([AEEA-AEEA-γGlu-Trx-C20 diacid])ATPEQLAQYAADLRRYINLLTRPRY-NH2; N-terminus and C-terminus assumed)	2	23	27	> 1000	–	–	–	–
CC[C@H](C)[C@H](NC(=O)[C@H](Cc1ccc(O)cc1)NC(=O)[C@H](CCCNC(=N)N)NC(=O)[C@H](CCCNC(=N)N)NC(=O)[C@H](CC(C)C)NC(=O)[C@H](CC(=O)O)NC(=O)[C@H](C)NC(=O)[C@H](C)NC(=O)[C@H](Cc1ccc(O)cc1)NC(=O)[C@H](CCC(N)=O)NC(=O)[C@H](C)NC(=O)[C@H](CC(C)C)NC(=O)[C@H](CCC(N)=O)NC(=O)[C@H](CCC(=O)O)NC(=O)[C@@H]1CCCN1C(=O)[C@@H](NC(=O)[C@H](C)NC(=O)[C@H](CCCCNC(=O)COCCOCCNC(=O)COCCOCCNC(=O)CC[C@H](NC(=O)CCCCCCCCCCCCCCCCC(=O)O)C(=O)O)NC(=O)[C@H](CC(=O)O)NC(=O)CNC(=O)[C@@H]1CCCN1C(=O)[C@H](Cc1ccc(O)cc1)NC(=O)[C@@H](NC(=O)[C@@H]1CCCN1C(=O)[C@H](CCC(=O)O)NC(=O)[C@H](CC(C)C)NC(=O)[C@@H]1CCCN1)C(C)C)[C@@H](C)O)C(=O)N[C@@H](CC(N)=O)C(=O)N[C@@H](CC(C)C)C(=O)N[C@@H](CC(C)C)C(=O)N[C@H](C(=O)N[C@@H](CCCNC(=N)N)C(=O)N1CCC[C@H]1C(=O)N[C@@H](CCCNC(=N)N)C(=O)N[C@@H](Cc1ccc(O)cc1)C(N)=O)[C@@H](C)O [SEQ ID NO: 30, N-epsilon11-[2-(2-{2-[2-(2-{2-[(S)-4-Carboxy-4-(17-carboxyheptadecanoylamino)butyrylamino]ethoxy}ethoxy)acetylamino]-ethoxy}ethoxy)acetyl][Lys11,Leu17,Leu30]hPP2-36] (H-PLEPVYPGDK([AEEA-AEEA-γGlu-C18 diacid])ATPEQLAQYAADLRRYINLLTRPRY-NH2; N-terminus and C-terminus assumed)	–	–	–	–	22	1	> 1000	–
CC[C@H](C)[C@H](NC(=O)[C@H](Cc1ccc(O)cc1)NC(=O)[C@H](CCCNC(=N)N)NC(=O)[C@H](CCCNC(=N)N)NC(=O)[C@H](CC(C)C)NC(=O)[C@H](CC(=O)O)NC(=O)[C@H](C)NC(=O)[C@H](C)NC(=O)[C@H](Cc1ccc(O)cc1)NC(=O)[C@H](CCC(N)=O)NC(=O)[C@H](C)NC(=O)[C@H](CC(C)C)NC(=O)[C@H](CCC(N)=O)NC(=O)[C@H](CCC(=O)O)NC(=O)[C@@H]1CCCN1C(=O)[C@@H](NC(=O)[C@H](C)NC(=O)[C@H](CC(N)=O)NC(=O)[C@H](CC(=O)O)NC(=O)CNC(=O)[C@@H]1CCCN1C(=O)[C@H](Cc1ccc(O)cc1)NC(=O)[C@@H](NC(=O)[C@@H]1CCCN1C(=O)[C@H](CCC(=O)O)NC(=O)[C@H](CC(C)C)NC(=O)[C@@H]1CCCN1)C(C)C)[C@@H](C)O)C(=O)N[C@@H](CC(N)=O)C(=O)N[C@@H](CC(C)C)C(=O)N[C@@H](CC(C)C)C(=O)N[C@H](C(=O)N[C@@H](CCCCNC(=O)COCCOCCNC(=O)COCCOCCNC(=O)CC[C@H](NC(=O)CCCCCCCCCCCCCCCCC(=O)O)C(=O)O)C(=O)N1CCC[C@H]1C(=O)N[C@@H](CCCNC(=N)N)C(=O)N[C@@H](Cc1ccc(O)cc1)C(N)=O)[C@@H](C)O [SEQ ID NO: 41, N-epsilon33-[2-(2-{2-[2-(2-{2-[(S)-4-Carboxy-4-(17-carboxyheptadecanoylamino)butyrylamino]ethoxy}ethoxy)acetylamino]-ethoxy}ethoxy)acetyl][Leu17,Leu30,Lys33]hPP2-36] (H-PLEPVYPGDNATPEQLAQYAADLRRYINLLTK([AEEA-AEEA-γGlu-C18 diacid])PRY-NH2)	–	–	–	–	105	> 1000	> 1000	93
